Broadly, the GI50 is the concentration giving 50% growth inhibition. In general, TGI refers to the concentration giving total growth inhibition.

What all share (assay): DTP human tumour cell line panel, 48 h
The subject of assay [1] is A549 NSCLC.
Assay [2] relates to IGROV1 ovarian.
The test system of assay [3] is LOX IMVI melanoma.
Assay [4] relates to RPMI-8226 leukemia.
The subject of assay [5] is SF-295 CNS.
For assay [6], the system named is HT29 colon.
The subject of assay [7] is SNB-75 CNS.
Assay [8] has as its system BT-549 breast.
The test system of assay [9] is DU-145 prostate.
Assay [10] concerns PC-3 prostate.

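The compound was tested at five concentrations on cells cultured in 96-well plates, with a 48-hour exposure period. GI50 is the concentration that inhibits growth by half. TGI: concentration producing complete growth inhibition.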 Where only a bound is given, the exact number is not on record here.

As for `O=c1c2ccccc2c(=O)n2n1-c1cccc(c1)CSSCc1cccc-2c1`, the GI50 in assay [1], in [2] and in assay [4] was over 100 µM each time. Also, the concentration for total growth inhibition (TGI) in [1], in assay [2], in assay [3], in [4] and in [5] was over 100 µM in each case.

With `O=C(O)c1ccccc1NS(=O)(=O)c1ccc(Cl)cc1`, the TGI in [1], in [6], in [2], in assay [3], in assay [4] and in assay [7] was over 100 µM throughout.

Turning to `O=C(O)CN(CCN(CC(=O)O)CC(=O)O)CCN(CC(=O)O)CC(=O)O`, the GI50 in assay [1] was 1.62 µM; in [8], 2.77 µM; in assay [9], 2.94 µM; in assay [6] it was 3.99 µM; in assay [3] it was 3.22 µM; in assay [10] it was 5.46 µM. Moreover, the GI50 in assay [5] was 3.25 µM; in [7], 1.99 µM. Also, the concentration for total growth inhibition (TGI) in [1] is 3.5 µM; in assay [8], 9.45 µM; in assay [9] it was 8.82 µM; in assay [6], 16.2 µM; in assay [3] it was 11.6 µM; in assay [10], over 100 µM. Moreover, the TGI in assay [5] was determined as 21.3 µM; in assay [7] it was 7.86 µM.

For `N#Cc1cnc2ccc(NCc3cnc[nH]3)cc2c1Nc1ccc(F)c(Cl)c1`, the GI50 was over 100 µM in assay [8]; 2.27 µM in assay [9]; over 100 µM in assay [6]; 2.6 µM in assay [2]; 5.62 µM in assay [3]; over 100 µM in assay [4]. The results for the GI50 in assay [5] and in assay [7] were 20.1 µM and 11.1 µM, respectively. Also, the concentration for total growth inhibition (TGI) in assay [8], in assay [9], in [6], in assay [2], in assay [3] and in [4] was over 100 µM each time. Further, the results for the TGI in [5] and in [7] were over 100 µM and 95.8 µM, respectively.

Consider `CN1CCN(c2cc(F)c(NC3=C(Cl)C(=O)c4ncccc4C3=O)c(F)c2)CC1`, for which the GI50 is 4.21 µM in assay [1]; 1.63 µM in assay [8]; 1.45 µM in assay [9]; 2 µM in assay [6]; 1.53 µM in assay [2]; 1.35 µM in [3]. Moreover, the GI50 in assay [10] is 1.6 µM; in [5] it was 1.68 µM; in assay [7] it was 1.37 µM. Moreover, the TGI was 16.3 µM in assay [1]; 3.06 µM in assay [8]; 2.94 µM in [9]; 4.04 µM in [6]; 3.37 µM in assay [2]; 2.84 µM in assay [3]. Moreover, the TGI amounted to 3.74 µM in assay [10], 3.23 µM in [5] and 5.61 µM in assay [7].

As to `CC1COS(=O)N1c1ccccc1` (stereo not drawn), the total growth inhibition concentration (TGI) in [1], in [6], in assay [2], in [3], in [4] and in assay [5] was over 100 µM in each case. The compound further returned a TGI in assay [7] of over 100 µM.

Take `O=C1c2ccccc2C(=O)N1C/C=N/NS(=O)(=O)c1cccc([N+](=O)[O-])c1`: the concentration for total growth inhibition (TGI) in [1], in [6], in assay [2], in assay [3], in assay [4] and in assay [5] was over 100 µM throughout. Moreover, in [7], the total growth inhibition concentration (TGI) is over 100 µM.

Take `CSC(=Nc1ccc([N+](=O)[O-])cc1C#N)NC(=O)c1ccccc1`: the TGI in assay [1], in assay [6], in assay [2], in [3], in assay [4] and in [5] was over 100 µM in each case. Also, the TGI in assay [7] is over 100 µM.

Take `Oc1ccc(CCNc2nc3ccccc3c3[nH]c4ccccc4c23)cc1O`: the GI50 in [1] is 2.26 µM; in assay [8] it was 9.27 µM; in assay [9], 2.45 µM; in assay [6] it was 3.2 µM; in assay [3], 1.77 µM; in [10] it was 1.51 µM. The GI50 in [5] was 5.51 µM; in assay [7], 15.9 µM. For the same compound, the TGI came to 5.95 µM in [1]; 21.3 µM in [8]; 7.44 µM in assay [9]; 11.1 µM in [6]; 3.28 µM in assay [3]; 3.63 µM in assay [10]. Further, the results for the TGI in assay [5] and in assay [7] were over 100 µM and 33.2 µM, respectively.

Turning to `O=c1[nH]c(=O)n(Cc2ccc(C34CC5CC(CC(C5)C3)C4)c(O)c2)cc1F`, the GI50 in [8] was 14.4 µM; in assay [9], 16.7 µM; in [6], 14.2 µM; in assay [3] it was 13.4 µM; in assay [4] it was 5.74 µM; in assay [5] it was 9.62 µM. For the same compound, in [7], the GI50 is 12.8 µM. Besides, the TGI in assay [8] stood at 28.1 µM; in assay [9], 32.4 µM; in assay [6], 37.2 µM; in assay [3], 27.2 µM; in [4], 23.8 µM; in [5] it was 27.2 µM. In addition, the TGI in assay [7] worked out at 32 µM.

Take `CCC(=O)N1C(=S)SC[C@H]1C(=O)OC`: the TGI in assay [1], in [6], in [2], in assay [3], in assay [5] and in assay [7] was over 100 µM in each case.

Take `CC[O-].CC[O-].[O-]c1ccccc1C=NC12CC3CC(CC(C3)C1)C2.[O-]c1ccccc1C=NC12CC3CC(CC(C3)C1)C2.[Ti+4]`: the GI50 is over 100 µM in assay [1]; over 100 µM in assay [6]; over 100 µM in [2]; 57.8 µM in [3]; 57.6 µM in assay [4]; over 100 µM in assay [5]. For the same compound, the TGI in assay [1], in [6], in assay [2], in [3], in [4] and in assay [5] was over 100 µM in each case.

As for `[O-]c1ccccc1C=NCCN=Cc1ccccc1[O-].[O]=[U+2]=[O]`, the GI50 in [1] is 43.1 µM; in assay [6], over 100 µM; in assay [2], 26.1 µM; in assay [3], 22.2 µM; in [4], 22.4 µM; in assay [5], 28.7 µM. In addition, in assay [7], the GI50 was 22.9 µM. Also, the TGI in assay [1] was over 100 µM; in assay [6], over 100 µM; in [2] it was 61.6 µM; in assay [3], over 100 µM; in assay [4], over 31.6 µM; in assay [5], over 72.3 µM. Further, the TGI in assay [7] was found to be 70.2 µM.

Regarding `Clc1ccc(NCNC2Nc3ccccc3N2)cc1Cl`, the TGI in [1] is over 100 µM; in [9], over 100 µM; in [6], 64 µM; in assay [3] it was over 100 µM; in [10], over 100 µM; in assay [4] it was over 100 µM. Besides, the TGI in assay [5] and in assay [7] was over 100 µM throughout.

Consider `Cc1cccc(-c2nc(=S)[nH][nH]2)c1`, for which the TGI in [1], in assay [6], in assay [2], in assay [4], in assay [5] and in assay [7] was over 100 µM throughout.

For `CC(C)CC(NC(=O)C(O)C(N)Cc1ccccc1)C(=O)O` (stereo not drawn), the TGI in assay [1], in assay [9], in assay [6], in assay [2], in [3] and in assay [10] was over 100 µM throughout. In addition, the TGI in assay [4], in assay [5] and in assay [7] was over 100 µM each time.

Regarding `O=C(c1ccccc1)[C@H]1Nc2ccc(Cl)cc2[C@H]2c3ccccc3O[C@H]21`, the TGI in assay [1] was 30.2 µM; in assay [6] it was 26.1 µM; in assay [2] it was 38.2 µM; in assay [3], 37.2 µM; in assay [4], over 100 µM; in [5] it was 28.9 µM. In [7], the TGI is 25.6 µM.

As for `O=[N+]([O-])c1ccc(Cl)c(C2CC(c3cccc4ccccc34)=Nc3ccccc3S2=O)c1` (stereo not drawn), the total growth inhibition concentration (TGI) is over 100 µM in [1]; 37.9 µM in assay [6]; over 85.1 µM in assay [2]; over 31.6 µM in [3]; 7.7 µM in assay [4]; 61 µM in [5]. Besides, in assay [7], the TGI was over 100 µM.

As to `O=NN(CC1(O)OCC(O)C(O)C1O)C(Cc1c[nH]c2ccccc12)C(=O)O` (stereo not drawn), the concentration for total growth inhibition (TGI) in assay [1], in assay [6], in assay [2], in [3], in assay [4] and in [7] was over 100 µM each time.

On to `Cc1cc(C)c2c(c1)CSCc1cc(C)cc(C)c1-2`, for which the concentration for total growth inhibition (TGI) in assay [1] was over 100 µM; in assay [6], 47.1 µM; in [2] it was over 100 µM; in assay [3] it was 33.2 µM; in [4], 56.4 µM; in assay [5], 68.3 µM. Besides, the TGI in [7] is over 100 µM.

In the case of `COC(=O)C1=C(C(=O)OC)C23CC4CCC2(C(=O)C1O3)C4(C)C` (stereo not drawn), the total growth inhibition concentration (TGI) in assay [1], in [9], in [6], in [2], in [3] and in assay [4] was over 100 µM in each case. Also, the concentration for total growth inhibition (TGI) in [5] and in assay [7] was over 100 µM each time.

`O=C1CN=C(c2ccccc2)c2ccncc2N1`: the TGI in assay [1], in assay [6], in assay [2], in assay [3], in [5] and in [7] was over 100 µM throughout.

Consider `CCOc1ccc2c(c1)[n+]([O-])c(C(N)=O)c(N)[n+]2[O-]`, for which the TGI in assay [1], in assay [6], in assay [2], in [5] and in assay [7] was over 100 µM each time.

As for `OC(c1ccccc1)c1c(-c2ccccc2)[nH]c(-c2ccccc2)c1C(O)c1ccccc1` (stereo not drawn), the TGI in assay [1] stood at 18.9 µM; in [9], 20 µM; in [6] it was 17.5 µM; in assay [2], 12 µM; in assay [3], 7.37 µM; in assay [10] it was 21.1 µM. Moreover, the TGI in [4] is 5.02 µM; in [5], 38.6 µM.

As to `CN(N=O)C(=O)NC(CCCCNC(=O)OCc1ccccc1)C(=O)OCc1ccccc1` (stereo not drawn), the TGI was over 100 µM in [1]; over 100 µM in assay [6]; over 100 µM in assay [2]; 37.1 µM in assay [3]; 95.4 µM in assay [4]; over 100 µM in [5]. Also, the TGI in assay [7] was determined as 36 µM.

In the case of `Cc1cnoc1/N=C1\C=C(Nc2oncc2C)C(=O)c2ccccc21`, the TGI in assay [1], in [6], in assay [2], in assay [3], in assay [4] and in assay [5] was over 100 µM each time. In addition, the TGI in [7] was over 100 µM.

For `CCOP(=O)(OCC)C(C(=O)OC)C(=O)C(=O)Nc1cccc([N+](=O)[O-])c1` (stereo not drawn), the TGI in assay [1], in assay [6], in assay [2], in assay [3], in [5] and in assay [7] was over 100 µM in each case.

As to `CC1=NC2(C(=O)O)C3(C(=O)O)N=C(C)OC3(C(F)(F)F)C2(C(F)(F)F)O1` (stereo not drawn), the TGI in assay [1], in assay [6], in assay [2], in assay [3], in assay [5] and in assay [7] was over 100 µM each time.

As for `NCCNCCNCc1c2ccccc2c(CNCCNCCN)c2ccccc12`, the TGI in assay [1], in assay [6], in [2], in assay [3], in assay [4] and in [5] was over 100 µM in each case.

Regarding `CS(=O)(=O)N(CCC#N)c1ccc(/C=C2\N=C(c3ccccc3Cl)OC2=O)cc1`, the TGI in [1], in assay [6], in assay [2], in assay [3], in [4] and in assay [5] was over 100 µM throughout. In assay [7], the TGI is over 100 µM.

(Values after PubChem BioAssay (NCI).)
